Data reported in patent publication US12263248B2, “Compounds and compositions for intracellular delivery of therapeutic agents” (ModernaTX, Inc., priority 2018, dated 2025).

Tests used:
[1] = Particle size and polydispersity index of nanoparticle compositions (Zetasizer Nano ZS); type: physicochemical
Method in brief: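 In 1×PBS, the compositions were sized on a Zetasizer Nano ZS, which also reported their polydispersity index.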

[2] = Encapsulation efficiency of RNA (QUANT-IT RIBOGREEN RNA assay); type: physicochemical; conditions: for EE (%): Table 1A
Method in brief: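 RiboGreen fluorescence (ex ~480, em ~520 nm) compared between intact samples and Triton X-100-lysed samples after 15 min at 37 °C in TE buffer, pH 7.5. Percent free RNA is the blank-corrected intact/disrupted ratio.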

[3] = Apparent (surface) pKa of the LNP formulation (TNS assay); type: physicochemical; conditions: for pKa: Table 1A
Method in brief: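 LNP (0.04 mg/mL mRNA) mixed with TNS reagent in 21 buffers spanning about pH 3-12, in triplicate; fluorescence plotted against pH as sigmoidal curve. Apparent pKa taken as […] curve inflection point; validated in 1× PBS and 20 mM Tris w/8% sucrose.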

[4] = test system: luciferase (Luc) mRNA; assay: Luc expression, whole body bioluminescence after intravenous administration to mice; type: in vivo; conditions: for Total Flux 3 hours / Total Flux 6 hours / Total Flux 24 hours: mice, i.v., 0.5 mg/kg, Luc mRNA; for 6 h BLI Lipid/MC3: Table 3E, intravenous
Method in brief: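 Luc mRNA nanoparticle formulations given intravenously to mice (n=6) at 0.5 mg/kg; whole-body bioluminescence imaged at 3, 6 and 24 h. CD-1 mice received IP D-luciferin (200 μL of 15 mg/mL) 15 min before imaging; total flux quantified by region of interest.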

[5] = test system: luciferase (Luc) mRNA; assay: Luc expression (total flux) after intramuscular administration; type: in vivo, mice; conditions: 6 hours after intramuscular administration
Protocol: In order to monitor how effectively various nanoparticle compositions deliver therapeutic and/or prophylactics to targeted cells, different nanoparticle compositions including a particular therapeutic and/or prophylactic (for example, a modified or naturally occurring RNA such as an mRNA) are prepared and administered to rodent populations. Mice are intravenously, intramuscularly, intraarterially, or intratumorally administered a single dose including a nanoparticle composition with a formulation such as those provided in Example 3. In some instances, mice may be made to inhale doses. Dose sizes may range from 0.001 mg/kg to 10 mg/kg, where 10 mg/kg describes a dose including 10 mg of a therapeutic and/or prophylactic in a nanoparticle composition for each 1 kg of body mass of the mouse. A control composition including PBS may also be employed.
Sample formulations including both modified luciferase (Luc) mRNA and H10 mRNA were prepared and administered intramuscularly and the resulting expression and immunogenicity were evaluated simultaneously. Formulations including compounds according to Formula (I), (IA), (IB), (II), (IIa), (IIb), (IIc), (IId), (IIe), (IIf), (IIg), (III), (VI), (VI-a), (VII), (VIII), (VIIa), (VIIIa), (VIIIb), (VIIb-1), (VIIb-2), (VIIb-3), (VIIc), (VIId), (VIIIc), or (VIIId) were prepared and administered at doses of 0.001 and 0.01 mpk (e.g., doses of 0.0005 mpk of a formulation including Luc mRNA and a formulation including H10 mRNA or doses of 0.005 mpk of a formulation including Luc mRNA and a formulation including H10 mRNA).
Sample formulations including modified luciferase (Luc) mRNA prepared and administered intramuscularly and the resulting expression and immunogenicity were evaluated simultaneously. Formulations including compounds according to Formula (I), (IA), (IB), (II), (IIa), (IIb), (IIc), (IId), (IIe), (IIf), (IIg), (III), (VI), (VI-a), (VII), (VIII), (VIIa), (VIIIa), (VIIIb), (VIIb-1), (VIIb-2), (VIIb-3), (VIIc), (VIId), (VIIIc), or (VIIId) were prepared and administered at dose of and 0.01 mpk.

[6] = test system: luciferase (Luc) mRNA; assay: Luc expression in liver, lung, spleen and femur 6 hours after intravenous administration; type: in vivo; conditions: mice, intravenous, 0.5 mpk
Method in brief: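 LNP-formulated mRNA given IV to mice (n=3) at 0.5 mpk; at 6 h, bioluminescence imaged ex vivo 15 min after IP D-luciferin (15 mg/mL, 200 μL), organs imaged within 25 min. Values are total flux by region of interest.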

[7] = test system: luciferase mRNA; assay: Luciferase expression after subcutaneous administration to mice; type: in vivo, female CD-1 mice; conditions: 0.5 mpk, relative to MC3
Protocol: The effect of the lipids of the disclosure on protein expression upon subcutaneous administration was studied. Formulations containing lipids of the disclosure and an mRNA expressing luciferase or hEPO were administered subcutaneously to female CD-1 mice at 0.5 mpk. Expression levels were obtained via whole body luminescent imaging (BLI) at 3, 6 and 24 hours after injection and expression levels in liver, spleen and at the injection site were evaluated ex vivo after 24 hours. […] See also Tables 35 and 36, and FIGS. 19 and 27.
Table 35 summarizes the luciferase expression levels using various nanoparticle compositions of the disclosure, and the luciferase expression levels using various nanoparticle compositions of the disclosure as compared to the luciferase expression level using an MC3 formulation after subcutaneous administration, as described above.

[8] = test system: IL-6, IP-10; assay: Cytokine induction in mice upon intravenous administration; type: in vivo; design: Cytokine induction IL-6 / Cytokine induction IP-10: unit not given here; conditions: intravenous, 0.5 mpk, 6 hours
Source text: The introduction of foreign material into a mammalian body induces an innate immune response that promotes cytokine production. Such immune responses to, for example, nanoparticle compositions including therapeutic and/or prophylactics, are undesirable. The induction of certain cytokines is thus measured to evaluate the […] of nanoparticle compositions. The concentrations of various cytokines in mice upon intravenous administration of nanoparticle compositions presented in Table 1A at a dosage of 0.5 mpk was measured at 6 hours. The standard MC3 formulation and a PBS control were also tested. As is evident in Table 7, IL-6 induction was highest for compositions including Compounds 1, 3, 9, 19, and 26, while IP-10 induction was highest for compositions including Compounds 3, 4, 7, 20, and 26. IL-6 induction was lowest for compositions including Compounds 4, 11, 12, and 28. IP-10 induction was lowest for compositions including Compounds 10, 11, 12, 13, 15, 17, and 18.

[9] = Lipid clearance: lipid level in mouse liver tissue (LC-MS/MS); type: in vivo; conditions: Table 3E, mouse liver
Protocol: Quantification of Lipid by LC-MS/MS: Liver samples were homogenized following addition of 19 eq. (w/v) of water (DF=20). Protein was precipitated and analyzed against calibration standards prepared in matching blank. Chromatographic separation and quantification was accomplished with a LC-MS/MS System. Samples were injected and separated via HPLC A triple-quadrupole MS/MS system operated in positive ion mode was used for signal detection.

[10] = Table 1A, lipid:DSPC:cholesterol:PEG-DMG 50:10:38.5:1.5 mol %
[11] = Table 1E, compositions for subcutaneous administration

| Structure (SMILES) | PDI ([1]; Table 1A) | Size (nm) [1, 10] | EE (%) [2] | pKa [3] | 6 h BLI Lipid/MC3 [4] | % Remaining dose at 6 h [9] | % Remaining dose at 24 h [9] | other results |
| --- | --- | --- | --- | --- | --- | --- | --- | --- |
| CCCCCCCCCOC(=O)CCCCCCCN(CCCCCCCC(=O)OC(CCCCCCCC)CCCCCCCC)CC(O)CO (stereo not drawn) [Compound 69, Heptadecan-9-yl 8-((2,3-dihydroxypropyl)(8-(nonyloxy)-8-oxooctyl)amino)octanoate] | 0.13 | 77.2 nm | 98.4% | 6.92 |  |  |  | PDI [1, 11]: 0.09; Size (nm) [1, 11]: 71.8 nm; % EE [2, 11]: 99%; App. pKa ([3]; Table 3F): 6.95; Total Flux 3 hours [4]: 3.38E+09; Total Flux 6 hours [4]: 7.95E+09; Total Flux 24 hours [4]: 1.15E+08; Total flux (p/s) 0.01 mpk Dose ([5]; Table 5B, 0.01 mpk): 8.83E+06 p/s; Total Flux Liver [6]: 2.24E+08; Total Flux Lung [6]: 7.34E+05; Total Flux Spleen [6]: 2.54E+06; Novel lipid/MC3 expression ratio, 6 hr. time point, s.c. Luc 0.5 mpk [7]: 0.14 |
| CCCCCCCCCCCCN(CCO)CCCCCCCCCCCC(=O)OC [Compound 137, Methyl 12-(dodecyl(2-hydroxyethyl)amino)dodecanoate] |  |  |  | 7.06 |  |  |  | Total Flux 3 hours [4]: 3.77E+05; Total Flux 6 hours [4]: 5.02E+05; Total Flux 24 hours [4]: 4.49E+05; Total flux, 0.001 mpk Dose ([5]; 0.001 mpk, Luc mRNA and H10 mRNA): 7.57E+04 p/s; Total flux, 0.01 mpk Dose ([5]; 0.01 mpk, Luc mRNA and H10 mRNA): 8.09E+04 p/s; Total Flux Femur ([6]; femur): 2.02E+04; Total Flux Liver [6]: 6.48E+04; Total Flux Lung [6]: 1.66E+04; Total Flux Spleen [6]: 1.32E+05; Cytokine induction IL-6 [8]: 130.82; Cytokine induction IP-10 [8]: 234.35 |
| CCCCCCCCCOC(=O)CCCCCCCN(CCO)CCCCCCCC(=O)OC(CCC1CC1CCCC)CCC1CC1CCCC (stereo not drawn) [Compound 160, 1,5-Bis(2-butylcyclopropyl)pentan-3-yl 8-((2-hydroxyethyl)(8-(nonyloxy)-8-oxooctyl)amino)octanoate] | 0.15 | 89.0 nm | 94.0% | 6.54 | 0.29 | 0.056% | 0% |  |
| CCCCCCCCC(CCCCCCCC)OC(=O)CCCCCCCN(CCO)C(C)CCCCCCCCOC(=O)CCCCCCC (stereo not drawn) [Compound 161, Heptadecan-9-yl 8-((2-hydroxyethyl)(10-(octanoyloxy)decan-2-yl)amino)octanoate] | 0.09 | 67.6 nm | 94.3% | 6.08 | 0.12 | 0.203% | 0% |  |
| CCCCCCCCC(CCCCCCCC)C(=O)OCCCCCCCN(CCO)C(C)CCCCCCCCOC(=O)CCCCCCC (stereo not drawn) [Compound 162, 7-((2-Hydroxyethyl)(10-(octanoyloxy)decan-2-yl)amino)heptyl 2-octyldecanoate] | 0.14 | 72.7 nm | 94.1% | 6.08 | 0.28 | 0.283% | 0% |  |
| CCCCCCCCCC(C)(O)CCCCCCCCN(CCO)CCCCCCCC(=O)OC(CCCCCCCC)CCCCCCCC (stereo not drawn) [Compound 171, Heptadecan-9-yl 8-((9-hydroxy-9-methyloctadecyl)(2-hydroxyethyl)amino)octanoate] | 0.14 | 100.5 nm | 85.0% | 6.48 | 2.26 | 51.0% | 35.5% |  |
| CCCCCCCCC(CCCCCCCC)OC(=O)CCCCCCCN(CCO)CCCCCCCC(=O)O[C@H](C)CCCCCCCC [Compound 172, (R)-Decan-2-yl 8-((8-(heptadecan-9-yloxy)-8-oxooctyl)(2-hydroxyethyl)amino)octanoate] | 0.13 | 77.3 nm | 95.4% | 6.40 | 1.72 | 17.4% | 3.24% |  |
| CCCCCCCCCOC(=O)CCCCCCCN(CCO)CCCCCCCC(=O)OC(COCCCCCC)COCCCCCC [Compound 183, 1,3-Bis(hexyloxy)propan-2-yl 8-((2-hydroxyethyl)(8-(nonyloxy)-8-oxooctyl)amino)octanoate] | 0.24 | 245.3 nm | 32.3% | 6.54 | 0.031 | 0.076% | 0% |  |
| CCCCCCCCCCCOC(=O)CCCCCN(CCO)CCCCCC(=O)OC(CCCCCCCCCC)CCCCCCCCCC [Compound 185, Henicosan-11-yl 6-((2-hydroxyethyl)(6-oxo-6-(undecyloxy)hexyl)amino)hexanoate] | 0.14 | 69.6 nm | 98.3% | 6.77 | 0.87 | 33.8% | 29.3% |  |
| CCCCCCCOC(=O)CCCCCCCCCN(CCO)CCCCCCCCCC(=O)OC(CCCCCC)CCCCCC [Compound 186, Heptyl 10-((2-hydroxyethyl)(10-oxo-10-(tridecan-7-yloxy)decyl)amino)decanoate] | 0.17 | 92.2 nm | 87.2% | 6.33 | 1.13 | 0.051% | 0% |  |
